ChEMBL document CHEMBL3112480, “γ-Alkylidene-γ-lactones and isobutylpyrrol-2(5H)-ones analogues to rubrolides as inhibitors of biofilm formation by gram-positive and gram-negative bacteria” (Bioorg Med Chem Lett, 2014)
In brackets after ≈: the same amount, converted by molar mass.

How the values were obtained:
Staphylococcus aureus [1] = test: Antibacterial activity against Staphylococcus aureus ATCC 25923 assessed as effect on planktonic growth at 0.17 ug/ml after 20 hrs relative to control; type: functional
Pseudomonas aeruginosa [2] = test: Antibacterial activity against Pseudomonas aeruginosa ATCC 27853 assessed as effect on planktonic growth at 1.37 ug/ml after 20 hrs relative to control; type: functional
[3] = system: Staphylococcus epidermidis; test: Antibacterial activity against Staphylococcus epidermidis ATCC 35547 assessed as effect on planktonic growth at 5.5 ug/ml after 20 hrs relative to control; type: functional
Pseudomonas aeruginosa [4] = test: Antibacterial activity against Pseudomonas aeruginosa ATCC 27853 assessed as inhibition of biofilm formation after 20 hrs by crystal-violet staining method; type: functional, organism-based; conditions: for IC50: ATCC 27853, 20 h
Pseudomonas aeruginosa [5] = test: Antibacterial activity against Pseudomonas aeruginosa ATCC 27853 assessed as effect on planktonic growth at 2.73 ug/ml after 20 hrs relative to control; type: functional
Streptococcus mutans [6] = test: Antibacterial activity against Streptococcus mutans ATCC 25175 assessed as effect on planktonic growth at 87.5 ug/ml after 20 hrs relative to control; type: functional
Pseudomonas aeruginosa [7] = test: Antibacterial activity against Pseudomonas aeruginosa ATCC 27853 assessed as effect on planktonic growth at 10.9 ug/ml after 20 hrs relative to control; type: functional
Staphylococcus aureus [8] = test: Antibacterial activity against Staphylococcus aureus ATCC 25923 assessed as effect on planktonic growth at 1.37 ug/ml after 20 hrs relative to control; type: functional
Pseudomonas aeruginosa [9] = test: Antibacterial activity against Pseudomonas aeruginosa ATCC 27853 assessed as effect on planktonic growth at 0.34 ug/ml after 20 hrs relative to control; type: functional
Streptococcus mutans [10] = test: Antibacterial activity against Streptococcus mutans ATCC 25175 assessed as effect on planktonic growth at 43.8 ug/ml after 20 hrs relative to control; type: functional
[11] = system: Staphylococcus epidermidis; test: Antibacterial activity against Staphylococcus epidermidis ATCC 35547 assessed as inhibition of biofilm formation after 20 hrs by crystal-violet staining method; type: functional, organism-based; conditions: for IC50: ATCC 35547, 20 h
Staphylococcus aureus [12] = test: Antibacterial activity against Staphylococcus aureus ATCC 25923 assessed as effect on planktonic growth at 0.68 ug/ml after 20 hrs relative to control; type: functional
Pseudomonas aeruginosa [13] = test: Antibacterial activity against Pseudomonas aeruginosa ATCC 27853 assessed as effect on planktonic growth at 21.9 ug/ml after 20 hrs relative to control; type: functional
[14] = system: Staphylococcus epidermidis; test: Antibacterial activity against Staphylococcus epidermidis ATCC 35547 assessed as effect on planktonic growth at 21.9 ug/ml after 20 hrs relative to control; type: functional
[15] = system: Staphylococcus epidermidis; test: Antibacterial activity against Staphylococcus epidermidis ATCC 35547 assessed as effect on planktonic growth at 0.34 ug/ml after 20 hrs relative to control; type: functional
Staphylococcus aureus [16] = test: Antibacterial activity against Staphylococcus aureus ATCC 25923 assessed as effect on planktonic growth at 21.9 ug/ml after 20 hrs relative to control; type: functional
Streptococcus mutans [17] = test: Antibacterial activity against Streptococcus mutans ATCC 25175 assessed as effect on planktonic growth at 0.17 ug/ml after 20 hrs relative to control; type: functional
Staphylococcus aureus [18] = test: Antibacterial activity against Staphylococcus aureus ATCC 25923 assessed as effect on planktonic growth at 10.9 ug/ml after 20 hrs relative to control; type: functional
[19] = system: Staphylococcus epidermidis; test: Antibacterial activity against Staphylococcus epidermidis ATCC 35547 assessed as effect on planktonic growth at 10.9 ug/ml after 20 hrs relative to control; type: functional
[20] = system: Staphylococcus epidermidis; test: Antibacterial activity against Staphylococcus epidermidis ATCC 35547 assessed as effect on planktonic growth at 0.68 ug/ml after 20 hrs relative to control; type: functional
Streptococcus mutans [21] = test: Antibacterial activity against Streptococcus mutans ATCC 25175 assessed as effect on planktonic growth at 5.5 ug/ml after 20 hrs relative to control; type: functional
Staphylococcus aureus [22] = test: Antibacterial activity against Staphylococcus aureus ATCC 25923 assessed as effect on planktonic growth at 43.8 ug/ml after 20 hrs relative to control; type: functional
Pseudomonas aeruginosa [23] = test: Antibacterial activity against Pseudomonas aeruginosa ATCC 27853 assessed as effect on planktonic growth at 0.17 ug/ml after 20 hrs relative to control; type: functional
[24] = system: Staphylococcus epidermidis; test: Antibacterial activity against Staphylococcus epidermidis ATCC 35547 assessed as effect on planktonic growth at 1.37 ug/ml after 20 hrs relative to control; type: functional
Pseudomonas aeruginosa [25] = test: Antibacterial activity against Pseudomonas aeruginosa ATCC 27853 assessed as effect on planktonic growth at 5.5 ug/ml after 20 hrs relative to control; type: functional
Streptococcus mutans [26] = test: Antibacterial activity against Streptococcus mutans ATCC 25175 assessed as effect on planktonic growth at 0.68 ug/ml after 20 hrs relative to control; type: functional
Streptococcus mutans [27] = test: Antibacterial activity against Streptococcus mutans ATCC 25175 assessed as effect on planktonic growth at 1.37 ug/ml after 20 hrs relative to control; type: functional
Staphylococcus aureus [28] = test: Antibacterial activity against Staphylococcus aureus ATCC 25923 assessed as effect on planktonic growth at 2.73 ug/ml after 20 hrs relative to control; type: functional
[29] = system: Staphylococcus epidermidis; test: Antibacterial activity against Staphylococcus epidermidis ATCC 35547 assessed as effect on planktonic growth at 87.5 ug/ml after 20 hrs relative to control; type: functional
Staphylococcus aureus [30] = test: Antibacterial activity against Staphylococcus aureus ATCC 25923 assessed as effect on planktonic growth at 0.34 ug/ml after 20 hrs relative to control; type: functional
[31] = system: Staphylococcus epidermidis; test: Antibacterial activity against Staphylococcus epidermidis ATCC 35547 assessed as effect on planktonic growth at 43.8 ug/ml after 20 hrs relative to control; type: functional
Streptococcus mutans [32] = test: Antibacterial activity against Streptococcus mutans ATCC 25175 assessed as effect on planktonic growth at 10.9 ug/ml after 20 hrs relative to control; type: functional
Streptococcus mutans [33] = test: Antibacterial activity against Streptococcus mutans ATCC 25175 assessed as effect on planktonic growth at 21.9 ug/ml after 20 hrs relative to control; type: functional
Streptococcus mutans [34] = test: Antibacterial activity against Streptococcus mutans ATCC 25175 assessed as effect on planktonic growth at 2.73 ug/ml after 20 hrs relative to control; type: functional
Staphylococcus aureus [35] = test: Antibacterial activity against Staphylococcus aureus ATCC 25923 assessed as effect on planktonic growth at 87.5 ug/ml after 20 hrs relative to control; type: functional
Pseudomonas aeruginosa [36] = test: Antibacterial activity against Pseudomonas aeruginosa ATCC 27853 assessed as effect on planktonic growth at 0.68 ug/ml after 20 hrs relative to control; type: functional
[37] = system: Staphylococcus epidermidis; test: Antibacterial activity against Staphylococcus epidermidis ATCC 35547 assessed as effect on planktonic growth at 2.73 ug/ml after 20 hrs relative to control; type: functional
[38] = system: Staphylococcus epidermidis; test: Antibacterial activity against Staphylococcus epidermidis ATCC 35547 assessed as effect on planktonic growth at 0.17 ug/ml after 20 hrs relative to control; type: functional
Pseudomonas aeruginosa [39] = test: Antibacterial activity against Pseudomonas aeruginosa ATCC 27853 assessed as effect on planktonic growth at 87.5 ug/ml after 20 hrs relative to control; type: functional
Pseudomonas aeruginosa [40] = test: Antibacterial activity against Pseudomonas aeruginosa ATCC 27853 assessed as effect on planktonic growth at 43.8 ug/ml after 20 hrs relative to control; type: functional
Streptococcus mutans [41] = test: Antibacterial activity against Streptococcus mutans ATCC 25175 assessed as effect on planktonic growth at 0.34 ug/ml after 20 hrs relative to control; type: functional
Staphylococcus aureus [42] = test: Antibacterial activity against Staphylococcus aureus ATCC 25923 assessed as effect on planktonic growth at 5.5 ug/ml after 20 hrs relative to control; type: functional

Question: Which results are given for `COc1ccc(Cl)cc1C1=C(Br)C(=O)N(CC(C)C)/C1=C/c1ccccc1Br`?
Answer: Activity (Staphylococcus aureus [1]): 2.7%; Activity (Pseudomonas aeruginosa [2]): -5.8%; Activity [3]: 2.7%; inhibition (Pseudomonas aeruginosa [4]): Dose-dependent effect; IC50 (Pseudomonas aeruginosa [4]): > 87.5 µg/mL; Activity (Pseudomonas aeruginosa [5]): -5.8%; Activity (Streptococcus mutans [6]): 6.4%; Activity (Pseudomonas aeruginosa [7]): -18.1%; Activity (Staphylococcus aureus [8]): -2.5%; Activity (Pseudomonas aeruginosa [9]): -3.9%; Activity (Streptococcus mutans [10]): 1.5%; inhibition [11]: Dose-dependent effect; IC50 [11]: 33.2 µg/mL (≈ 63.2 µM); Activity (Staphylococcus aureus [12]): 3%; Activity (Pseudomonas aeruginosa [13]): -14.6%; Activity [14]: 10.6%; Activity [15]: 5.5%; Activity (Staphylococcus aureus [16]): -6.2%; Activity (Streptococcus mutans [17]): -19.5%; Activity (Staphylococcus aureus [18]): -4.6%; Activity [19]: -0.4%; Activity [20]: -2.2%; Activity (Streptococcus mutans [21]): 1.8%; Activity (Staphylococcus aureus [22]): -4.3%; Activity (Pseudomonas aeruginosa [23]): -1.8%; Activity [24]: -0.4%; Activity (Pseudomonas aeruginosa [25]): -5.1%; Activity (Streptococcus mutans [26]): -13.4%; Activity (Streptococcus mutans [27]): -8.2%; Activity (Staphylococcus aureus [28]): 7.5%; Activity [29]: 31.5%; Activity (Staphylococcus aureus [30]): -0.7%; Activity [31]: 21.8%; Activity (Streptococcus mutans [32]): -4.3%; Activity (Streptococcus mutans [33]): 7%; Activity (Streptococcus mutans [34]): -3.3%; Activity (Staphylococcus aureus [35]): 3.6%; Activity (Pseudomonas aeruginosa [36]): -7.5%; Activity [37]: -3.7%; Activity [38]: 1.9%; Activity (Pseudomonas aeruginosa [39]): -9.1%; Activity (Pseudomonas aeruginosa [40]): -14.6%; Activity (Streptococcus mutans [41]): -18.8%; Activity (Staphylococcus aureus [42]): 0.2%

Question: Which results are given for `COc1ccc(Br)cc1C1=C(Br)C(=O)O/C1=C\c1cccc(Cl)c1`?
Answer: Activity (Staphylococcus aureus [1]): 13.8%; Activity (Pseudomonas aeruginosa [2]): -13.2%; Activity [3]: 1.6%; inhibition (Pseudomonas aeruginosa [4]): Dose-dependent effect; IC50 (Pseudomonas aeruginosa [4]): > 87.5 µg/mL; Activity (Pseudomonas aeruginosa [5]): -21.1%; Activity (Streptococcus mutans [6]): 14.9%; Activity (Pseudomonas aeruginosa [7]): -16.9%; Activity (Staphylococcus aureus [8]): 27%; Activity (Pseudomonas aeruginosa [9]): 0.3%; Activity (Streptococcus mutans [10]): 0.5%; inhibition [11]: Dose-dependent effect; IC50 [11]: 40 µg/mL (≈ 85 µM); Activity (Staphylococcus aureus [12]): 20%; Activity (Pseudomonas aeruginosa [13]): -15%; Activity [14]: 8.8%; Activity [15]: -6.1%; Activity (Staphylococcus aureus [16]): 43.1%; Activity (Streptococcus mutans [17]): -1%; Activity (Staphylococcus aureus [18]): 43.6%; Activity [19]: 8.6%; Activity [20]: -1.6%; Activity (Streptococcus mutans [21]): 12.4%; Activity (Staphylococcus aureus [22]): 75.8%; Activity (Pseudomonas aeruginosa [23]): 1.4%; Activity [24]: -2.4%; Activity (Pseudomonas aeruginosa [25]): -19.8%; Activity (Streptococcus mutans [26]): 8.4%; Activity (Streptococcus mutans [27]): 8.9%; Activity (Staphylococcus aureus [28]): 30.1%; Activity [29]: 28.4%; Activity (Staphylococcus aureus [30]): 14.5%; Activity [31]: 20.6%; Activity (Streptococcus mutans [32]): 13.4%; Activity (Streptococcus mutans [33]): -5.8%; Activity (Streptococcus mutans [34]): 16.2%; Activity (Staphylococcus aureus [35]): 121.6%; Activity (Pseudomonas aeruginosa [36]): -3.1%; Activity [37]: 0.1%; Activity [38]: -1.7%; Activity (Pseudomonas aeruginosa [39]): -7.3%; Activity (Pseudomonas aeruginosa [40]): -9.5%; Activity (Streptococcus mutans [41]): 7.6%; Activity (Staphylococcus aureus [42]): 36.6%
